Results as given in ChEMBL document CHEMBL2029313, “Design, synthesis and biological evaluation of potent NAD+-dependent DNA ligase inhibitors as potential antibacterial agents. Part I: aminoalkoxypyrimidine carboxamides” (Bioorg Med Chem Lett, 2012).
Converted amounts (≈) assume the structure as drawn.

What was measured:
Staphylococcus aureus = assay: Antibacterial activity against Staphylococcus aureus ATCC 29213; type: functional
[1] = Inhibition of Escherichia coli NAD+-dependent DNA ligase
DNA ligase 1 = DNA ligase 1 (Homo sapiens, UniProt P18858); assay: Inhibition of human ATP-dependent DNA ligase 1
Escherichia coli [2] = assay: Antibacterial activity against wild-type TolC-positive Escherichia coli 1410 expressing ligA gene; type: functional
Escherichia coli [3] = assay: Antibacterial activity against TolC-positive Escherichia coli 1201 expressing lig251 gene; type: functional
Escherichia coli [4] = assay: Antibacterial activity against efflux-deficient Escherichia coli 1260 expressing transducant lig251 gene encoding temperature sensitive ligA; type: functional
Haemophilus influenzae = assay: Antibacterial activity against Haemophilus influenzae ATCC 51907; type: functional
Streptococcus pneumoniae = assay: Antibacterial activity against Streptococcus pneumoniae ATCC 10015; type: functional

Chain of DNA ligase 1 (P18858 whole entry): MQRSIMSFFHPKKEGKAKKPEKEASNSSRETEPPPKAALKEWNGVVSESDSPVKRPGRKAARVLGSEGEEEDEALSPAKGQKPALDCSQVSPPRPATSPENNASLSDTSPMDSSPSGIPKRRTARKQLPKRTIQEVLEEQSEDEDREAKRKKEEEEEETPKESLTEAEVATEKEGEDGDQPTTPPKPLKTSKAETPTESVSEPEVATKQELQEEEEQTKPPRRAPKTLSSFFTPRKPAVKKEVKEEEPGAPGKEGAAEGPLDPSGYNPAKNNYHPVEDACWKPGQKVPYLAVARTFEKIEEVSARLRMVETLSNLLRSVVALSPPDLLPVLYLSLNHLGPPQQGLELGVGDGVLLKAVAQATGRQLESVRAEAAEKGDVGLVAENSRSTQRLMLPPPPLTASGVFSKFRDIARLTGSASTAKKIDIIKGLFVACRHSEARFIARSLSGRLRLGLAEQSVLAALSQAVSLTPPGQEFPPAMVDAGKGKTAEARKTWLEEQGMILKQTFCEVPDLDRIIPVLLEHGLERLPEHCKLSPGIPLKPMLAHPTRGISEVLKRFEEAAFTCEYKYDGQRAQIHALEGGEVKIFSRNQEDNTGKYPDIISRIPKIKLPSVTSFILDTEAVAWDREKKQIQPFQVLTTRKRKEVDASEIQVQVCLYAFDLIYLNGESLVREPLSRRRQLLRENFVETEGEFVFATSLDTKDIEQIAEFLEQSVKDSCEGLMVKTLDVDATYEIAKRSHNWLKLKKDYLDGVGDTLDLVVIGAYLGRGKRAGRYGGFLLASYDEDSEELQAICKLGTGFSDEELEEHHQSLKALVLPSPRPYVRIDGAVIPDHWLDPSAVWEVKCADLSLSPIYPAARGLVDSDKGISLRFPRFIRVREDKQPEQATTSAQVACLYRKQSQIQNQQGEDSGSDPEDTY

Structure (SMILES)	MIC (Staphylococcus aureus) [µM]	IC50 [1] [nM]	IC50 (DNA ligase 1) [nM]	MIC (Escherichia coli [2]) [µM]	MIC (Escherichia coli [3]) [µM]	MIC (Escherichia coli [4]) [µM]	MIC (Haemophilus influenzae) [µM]	MIC (Streptococcus pneumoniae) [µM]
NC(=O)c1cnc(OC2CCCCC2)nc1N	> 100	560	> 55000	> 100	> 100	9.8 (≈ 2.32 µg/mL)		
C[C@H]1CCCC[C@H]1Oc1ncc(C(N)=O)c(N)n1	> 100	240	> 55000	> 100	> 100	3.1 (≈ 0.776 µg/mL)		
CC(C)Oc1ncc(C(N)=O)c(N)n1	> 100	410	> 55000	> 100	27 (≈ 5.3 µg/mL)	15 (≈ 2.94 µg/mL)		
NC(=O)c1cnc(OCCF)nc1N	> 100	920	> 55000	> 100	23 (≈ 4.6 µg/mL)	28 (≈ 5.6 µg/mL)		
CC(Oc1ncc(C(N)=O)c(N)n1)C(=O)O (stereo not drawn)	> 100	> 10000	> 55000	> 100	> 100	> 100		
NC(=O)c1cnc(SC2CCCC2)nc1N	> 100	6900		> 100	> 100	33 (≈ 7.86 µg/mL)		
CNc1nc(OCC2CCCC2)ncc1C(N)=O	> 100	> 55000		> 100	> 100	> 100		
Nc1nc(OCC2CCCC2)ncc1C(=O)NCC1CCCO1 (stereo not drawn)	> 100	> 55000		> 100	> 100	> 100		
Nc1nc(OCC2CCCC2)ncc1C(=O)NCCCN1CCCC1=O	> 100	> 55000		> 100	> 100	> 100		
Nc1nc(OC2CCCC2)ncc1S(N)(=O)=O	> 100	> 40000		> 100	> 100	> 100		
NC(=O)c1c(N)nc(OC2CCCC2)nc1OC1CCCCC1F (stereo not drawn)	> 100	19	> 55000	> 100	> 100	1.2 (≈ 0.406 µg/mL)		
NC(=O)c1c(N)nc(OC2CCCC2)nc1Oc1ccccc1F	> 100	64	> 55000	> 100	> 100	9.4 (≈ 3.12 µg/mL)		
NC(=O)c1c(N)nc(OC2CCCC2)nc1Oc1cccc(CCC(=O)O)c1	83 (≈ 32.1 µg/mL)	78	> 55000	> 100	> 100	1.2 (≈ 0.464 µg/mL)		
NC(=O)c1c(N)nc(OC2CCCC2)nc1O[C@H]1CCCC[C@@H]1CO	100 (≈ 35 µg/mL)	14	> 55000	> 100	> 100	1.2 (≈ 0.421 µg/mL)		
COc1cc(NC[C@H]2CCCC(Oc3nc(OC4CCCC4)nc(N)c3C(N)=O)C2)cc(OC)c1 (stereo partly drawn)	> 100	80	> 55000	> 100	> 100	1.6 (≈ 0.777 µg/mL)		
CC(C)Oc1nc(N)c(C(N)=O)c(O[C@H]2CCC[C@@H]2O)n1	> 100	630	> 55000	> 100	> 100	4.7 (≈ 1.39 µg/mL)		
C[C@H]1CC[C@H](Oc2nc(N)c(C(N)=O)c(O[C@H]3CCC[C@@H]3O)n2)CC1	100 (≈ 35 µg/mL)	180	> 55000	> 100	> 100	1.2 (≈ 0.421 µg/mL)	12.5 (≈ 4.38 µg/mL)	75 (≈ 26.3 µg/mL)

Results, then the molecule that gave them:

MIC (Staphylococcus aureus) [µM]	IC50 [1] [nM]	IC50 (DNA ligase 1) [nM]	MIC (Escherichia coli [2]) [µM]	MIC (Escherichia coli [3]) [µM]	MIC (Escherichia coli [4]) [µM]	MIC (Haemophilus influenzae) [µM]	MIC (Streptococcus pneumoniae) [µM]	Structure (SMILES)
> 100	610	> 55000	> 100	100 (≈ 22.2 µg/mL)	9.4 (≈ 2.09 µg/mL)			NC(=O)c1cnc(OC2CCCC2)nc1N
> 100	> 55000		> 100	> 100	> 100			NC(=O)c1cnc(NC2CCCC2)nc1N
> 100	> 55000		> 100	> 100	> 100			NC(=O)c1cnc(CCC2CCCC2)nc1N
> 100	> 55000		> 100	> 100	> 100			COCCNc1nc(OCC2CCCC2)ncc1C(N)=O
> 100	8100		> 100	> 100	100 (≈ 22.1 µg/mL)			N=C(N)c1cnc(OC2CCCC2)nc1N
> 100	120	> 55000	> 100	> 100	9.4 (≈ 3.03 µg/mL)			NC(=O)c1c(N)nc(OC2CCCC2)nc1O[C@H]1CCC[C@H]1O
45 (≈ 15.1 µg/mL)	46	> 55000	> 100	> 100	1.6 (≈ 0.538 µg/mL)			NC(=O)c1c(N)nc(OC2CCCC2)nc1O[C@H]1CCCC[C@@H]1O
> 100	61	> 55000	> 100	> 100	6.3 (≈ 1.85 µg/mL)			CC(C)Oc1nc(N)c(C(N)=O)c(OC2CCCCC2)n1
